In patent US8217072B2, “Salinosporamides and methods for use thereof” (The Regents of the University of California, priority 2003, dated 2012):

Assays:
[1] = system: Enterococcus faecium (vanomycin resistant); experiment: Antibacterial screening, Enterococcus faecium; assay type: cell-based; design: key to IC50: NSA = no significant activity
[2] = system: Staphylococcus aureus (methecillin resistant); experiment: Antibacterial screening, Staphylococcus aureus; assay type: cell-based; design: key to IC50: NSA = no significant activity
[3] = system: Candida albicans(amphoterocin B resistant); experiment: Antifungal screening, Candida albicans (amphoterocin B resistant); assay type: cell-based; design: key: NSA = no significant activity
[4] = Solubility in organic solvents; conditions: CHCl3, methanol, and other polar solvents like DMSO, acetone, acetonitrile, benzene, pyridine, N,N-dimethylformamide

## C[C@@]12OC(=O)[C@]1([C@@H](O)[C@@H]1C=CCCC1)NC(=O)[C@@H]2CCCl [Salinosporamide A]
[1]
  antibacterial activity: no antibacterial activity
[1]; vanomycin resistant
  IC50: NSA*
[2]
  antibacterial activity: no antibacterial activity
[2]; methecillin resistant
  IC50: NSA*
[3]
  IC50: NSA*
[4]
  solubility: soluble
